B1: CNTF: ciliary neurotrophic factor, neurotrophin used as positive control for cell differentiation in primary screening (protein, UniProt P26441 1-200, looked up)
Ciliary neurotrophic factor: MAFTEHSPLTPHRRDLCSRSIWLARKIRSDLTALTESYVKHQGLNKNINLDSADGMPVASTDQWSELTEAERLQENLQAYRTFHVLLARLLEDQQVHFTPTEGDFHQAIHTLLLQVAAFAYQIEELMILLEYKIPRNEADGMPINVGDGGLFEKKLWGLKVLQELSQWTVRSIHDLRFISSHQTGIPARGSHYIANNKKM

Experiments:
[1] = tested on: oligodendrocyte progenitor cells; assay: Immunocytochemistry for PLP/DM20 and MBP, count of differentiated cells; type: cell-based, mouse; details: Table 3, 10 μM, 48 hrs
Experimental: Immunodetection of oligodendrocyte and myelin markers was performed. In brief, Oligodendrocyte cells plated on PDL-coated dishes were initially fixed in 2% paraformaldehyde (PFA) for 10 min at room temperature (RT) and then 4% PFA for 15 min, washed three times with PBS and permeabilized with 0.1% Triton X100 for 10 min at RT. After blocking with 3% BSA in PBS for 60 min a RT, the cells were incubated with primary antibodies at the indicated concentrations overnight (ON) at 4° C. The cells were washed three times with cold PBS incubated with secondary antibodies for 45 min at RT, and washed again before mounting. Immunostaining of tissue sections prepared with a sliding microtome (30 μm) was performed. In brief, tris buffered saline (TBS) containing 100 nM Sodium fluoride (TBSS) was used the all dilutions and washes. For antigen retrieval, sections were washed 3 times in TBSS, incubated in 5% methanol and 3% H2O2 for 10 min, washed 2 times, and then incubated in 10% Triton X-100 for 20 min. Blocking of unspecific bonds was performed by incubating the tissue sections with 10% NGS for 1 hr. Primary antibodies were diluted in 3% BSA containing 0.02% Triton X-100 and sections were incubated overnight in this solution. The next day the sections were washed 3 times in TBSS, followed by 1 hr incubation in secondary antibodies (1:1000) at 4° C. After several washes, the sections were mounted using Vectashield (Vector Laboratories, Burlingame, Calif.). Visualization of immunostained cells and tissue was performed on a Leica DMR (Wetzlar, Germany) or a Leica SP5 confocal microscope.
(§1) The primary screening to select positive compounds was performed at a standard concentration of 10 μM with cell morphology analysis 48 hrs after treatment. Dose response curves at 48 hrs treatment time were performed to determine the minimum concentration compounds A, A-7 and B needed to induce cell maturation. We assessed oligodendrocyte differentiation by cell morphology changes, green fluorescence in cells generated from or Plp-EGFP transgenic mouse, immunostaining for myelin proteins and western blot for expression of the oligodendrocyte markers PLP/DM20 and 2′,3′, cyclic nucleotide 3′ phosphohydrolase (CNPase). EC50 values were also calculated based on results of western blot for myelin proteins and subsequent band densitometry analysis. Additionally, we followed cell differentiation induced over long time exposure to compounds A and B (7 days, 0.1-10 μM).
Compound A-7-induced oligodendrocyte progenitor maturation was also analyzed in comparison to control cells in immunostaining experiments to detect the myelin proteins MBP and PLP. Positive cells for these markers showing processes formation and membranous structures were counted versus total cells and counterstained with the nuclear dye Dapi after 48 hrs (Tables 3 and 4) and 7 days treatment with 0.1, 1 or 10 μM compound A-7 (FIG. 2, B).

[2] = tested on: oligodendrocyte progenitor cells; assay: Western blot for myelin proteins PLP/DM20 and CNPase in treated oligodendrocyte progenitor cells; type: cell-based, mouse; details: Table 3, 10 μM, 48 hrs
Experimental: (§2) Oligodendrocyte progenitors were generated from embryonic neural progenitors growing in cell aggregates known as neurospheres (Nphs). Nph were prepared from embryos at 14.5 days of gestation obtained from timed pregnant females of either wild type mice or the proteolipid protein-enhanced-green fluorescence protein (Plp-EGFP) transgenic mouse. In brief, after separation of meninges and cerebellum, cerebrum tissue was mechanically triturated with a 1 ml Gilson pipette until total tissue disaggregation was achieved, filtered through a 70 μm cell strainer (Fisher Scientific, Pittsburg, Pa.) and plated in 25 cm^2 plastic culture flasks (2 brains/flask). Nph proliferation media (NPM) was DMEM/F12, B27 neuronal supplement (Gibco, Baltimore, Md.) and 10 ng/ml EGF (Sigma, St. Louis, Mo.). After 48-72 hr, floating Nphs were passaged at a 1:3 ratio in the same medium every 3-4 days. To generate oligodendrocyte progenitors, single cells suspensions were obtained by chemical disgregation with the mouse NeuroCult dissociation kit (StemCell Technologies, Alberta, Canada). The single cell suspension was filtered through a 70 μm cell strainer and plated on 96-well poly-D-Lysine (PDL)-coated plates at a cell density of 1.5×10^4 cells/cm^2. Cells were maintained in NPM supplemented with 10 ng/ml PDGF/bFGF instead of EGF. Bipolar, oligodendrocyte progenitor cells were observed 24 hours after plating. At the Moment of treatment to induce oligodendrocyte progenitor differentiation, the media was changed to OPC differentiation media containing NPM with a 1:10 dilution of PDGF/FGF.
For myelin protein analyses, cells were grown on 100 mm culture plates and after exposure to small molecules or controls were washed twice with ice-cold PBS. RIPA lysis buffer was added to the plates and the cells were scraped, collected and disrupted with a homogenizer on ice. Cell homogenates were then centrifuged at 6,000×g, 10 min, 4° C. and supernatants separated in a fresh tube. After adding Laemli loading buffer, proteins were denaturized at 70° C. for 10 mm and loaded in gradient gels (4-20, Criterion, BioRad, Calif.). Electroforetically separated proteins were electro-transferred to nitrocellulose membranes in a semi-dry apparatus and unspecific bonds were blocked with IRdye blocking solution for at least 1 hr at RT. After washing twice with TBS-T, primary antibodies were added and incubated over night at 4° C. Membranes were incubated with secondary, IRdye-infrared conjugated antibodies for 1 hr at RT and visualized on the Odyssey scanner.
as §1

Akt = Akt activity in cell extracts of oligodendrocyte precursors (phosphorylation of Akt substrate GSKα/β); type: cell-based; details: 10 μM, 48 h
From the text: Oligodendrocyte precursor differentiation requires the activation of a complex, highly controlled machinery that signals cells to stop migrating/proliferating and start extending processes and producing myelin components. A number of inducers and intracellular mediators of this process have been identified in vitro and in viva. […] Therefore, we studied whether our selected small molecules induced Akt signaling in oligodendrocyte precursors. We analyzed Akt activity in cell extracts of oligodendrocyte precursors treated with selected compounds (10 μM, 48 h), as determined by phosphorylation of Akt substrate GSKα/β.

[3] = tested on: oligodendrocyte progenitors; assay: Primary/secondary screening: oligodendrocyte progenitor morphology changes and Plp-EGFP fluorescence; type: cell-based, mouse
Experimental: as §2, with “At the Moment of treatment to induce oligodendrocyte progenitor differentiation, the media was changed to OPC differentiation media containing NPM with a 1:10 dilution of PDGF/FGF.” left out
The small molecule library consists of handcrafted drug-like organic molecules with molecular weight in a range of 250-550, dissolved in DMSO at concentration of 5 mg/ml or […]. Their structure and >95% purity have been validated by NMR. […] Oligodendrocyte progenitor differentiation was scored using as 4 scale values as follows: 1: bipolar, undifferentiated; 2: bipolar to tripolar, initiated differentiation; 3: multibranched, differentiated cells; 4: multibranched, differentiated cells showing membranous structures (FIG. 1).
Differentiation induced by selected compounds was further validated by fluorescence microscopy in cells generated from our Plp-EGFP transgenic mouse. Increased fluorescence in treated oligodendrocyte progenitor was indicative of cell maturation and was again scored following the same scale. […] These were analyzed for cell toxicity assays by MTT were yellow 3-(4,5-Dimethylthiazol-2-yl)-2,5-diphenyltetrazolium bromide, a tetrazole (MTT) is reduced to purple formazan in the mitochondria of living cells, showing a solution color change measurable by OD620-590 (Data not shown). Further oligodendrocyte progenitor maturation in response to selected compounds was assessed by induction of myelin protein expression as determined by immunocytochemistry and western blot. […]

| Molecule | Differentiated Cells (IC, % of Control) [1] | PLP/DM20 Expression (WB, % of Control) [2] | induction of oligodendrocyte precursor maturation [3] | other results |
| --- | --- | --- | --- | --- |
| CCS(=O)(=O)N1CCN(C(=O)COc2ccc(C)cc2)CC1 | 207.5 ± 38.2 n = 3; p <0.05 % of Control | 160.7 ± 8.2 n = 2 % of Control | – | – |
| Br.COc1ccc(C2=CSC3=NCCN23)cc1F [F, 3-(3-fluoro-4-methoxyphenyl)-5,6-dihydroimidazo[2,1-b][1,3]thiazole hydrobromide] | – | – | showed induction of oligodendrocyte precursor maturation | Akt phosphorylation (Akt): clearly detected |
| CCS(=O)(=O)N1CCN(C(=O)COc2ccccc2)CC1 | 195 ± 10.9 n = 3; p <0.05 % of Control | 148 ± 10.6 n = 2 % of Control | – | – |
| CC(=O)NC(=Cc1ccc(Cl)cc1)C(=O)N1CCOCC1 [D, N-[2-(4-chlorophenyl)-1-(4-morpholinylcarbonyl)vinyl]acetamide] | – | – | showed induction of oligodendrocyte precursor maturation | – |
| CCCS(=O)(=O)N1CCN(C(=O)COc2ccc(OC)cc2)CC1 | 224.3 ± 66.3 n = 3; p <0.05 % of Control | 143.0 ± 6.9 n = 2 % of Control | – | – |
| B1 | – | – | – | oligodendrocyte progenitor morphological changes indicative of cell maturation ([3]; positive control, 10 ng/ml, 48 hrs): marked oligodendrocyte progenitor morphological changes |

Source: patent US20120172375A1, “COMPOUNDS AND METHODS OF PROMOTING OLIGODENDROCYTE PRECURSOR DIFFERENTIATION” (priority 2008, published 2012)
